Data on 1 compound can be found in publication PMC6396489 (Cell Communication and Signaling : CCS, 2019).

SMILES strings stand for the structures. Changes are numbered by the printed parent chain.

In test [1] the target is T1, Shp1 (Homo sapiens, UniProt P29350).
T1 construct: the C-terminal truncated form of human Shp1 cDNA (His-Shp1; amino acids 1–529); made in house; host or cells: E. coli BL21(DE3)
T1 sequence (P29350 1-529 isoform P29350-3): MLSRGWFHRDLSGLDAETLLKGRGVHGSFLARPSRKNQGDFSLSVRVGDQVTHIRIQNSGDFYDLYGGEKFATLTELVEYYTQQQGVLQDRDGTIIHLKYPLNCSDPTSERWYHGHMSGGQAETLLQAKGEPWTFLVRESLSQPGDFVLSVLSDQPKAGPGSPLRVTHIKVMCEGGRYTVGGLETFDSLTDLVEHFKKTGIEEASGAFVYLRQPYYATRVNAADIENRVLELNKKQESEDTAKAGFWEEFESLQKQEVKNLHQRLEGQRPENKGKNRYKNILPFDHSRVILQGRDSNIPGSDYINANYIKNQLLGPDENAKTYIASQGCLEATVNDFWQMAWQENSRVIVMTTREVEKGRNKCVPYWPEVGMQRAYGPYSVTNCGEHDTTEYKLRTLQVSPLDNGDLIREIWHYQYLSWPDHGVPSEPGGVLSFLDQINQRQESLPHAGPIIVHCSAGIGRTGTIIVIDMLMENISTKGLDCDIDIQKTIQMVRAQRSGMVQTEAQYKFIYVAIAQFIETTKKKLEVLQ
Description: Steady-state Trp fluorescence emission spectroscopy of purified Shp1. Type of test: binding. Here is the method: (§1) The absorption spectra of Shp1 were recorded using a Varian Cary 1 spectrophotometer. Steady-state fluorescence emission measurements were performed with a K2 fluorometer (ISS, Champaign, IL, USA) equipped with a two-cell temperature-controlled sample holder. To selectively excite Trp residues, the excitation wavelength was set at 295 nm with a slit width of 1 nm. To avoid the inner-filter effect, all steady-state fluorescence measurements were performed on Shp1 with optical densities at 295 nm less than 0.1 OD. All measurements were made at 25 °C with the temperature of the samples determined in the cuvette with an accuracy of ±0.2 °C. For each experiment, the Shp1 concentration was fixed at 1.2 μM, while GroPIns4P was varied from 0.0 to 5.0 μM. Thus, a 500 μL solution containing 1.2 μM Shp1 dissolved in PBS pH 7.4 was titrated by successive additions of GroPIns4P (dissolved in PBS buffer, pH 7.4). After each addition, the samples were incubated for 2 min and fluorescence emission spectra were recorded between 310 and 410 nm in triplicate. To exclude the influence of sample dilution, fluorescence titration experiments were performed by adding the same amount of PBS buffer in the total volume (500 μL).

In test [2] the target is T2, Shp1 S118A/R138E/S140A mutant (Homo sapiens, UniProt P29350, R136E/S116A/S138A).
T2 construct: a tailless-form of Shp1 (residues 1–529) has previously been used [25] and it is used also in this study; 6xHis (N); made in house; host or cells: E. coli BL21(DE3)
T2 sequence (P29350 1-529 isoform P29350-3 S118A/R138E/S140A): T1 sequence (P29350 1-529 isoform P29350-3) with S118A, R138E, S140A
In words: Trp fluorescence emission spectroscopy of Shp1 S118A/R138E/S140A mutant. In kind it is binding. Particulars: S118A/R138E/S140A vs wild type. On the procedure:
as §1

Test [3] has as its target T1, Shp1. Description: SPR competition assay with free GroPIns4P. The note with it: Shp1 1.2 μM; read-out: EC50 of competition with Shp1 binding to GroPIns4P-Bio chip. On the procedure:
For the competition experiments, SPR assays were performed at a fixed concentration of Shp1 (1.2 μM) in the presence of increasing concentrations of GroPIns4P (0.0 to 5.0 μM). Both Shp1 and GroPIns4P were dissolved in HBS-EP buffer and incubated for 10 min before injection onto the SA sensor chip. The flow was fixed to 20 μL/min, and the time of injection was 3 min. A solution of 2.0 mM glycine/HCl, pH 3.0, was used in the regeneration step to remove the analyte bond before reusing the sensor chip.

In a further test the test system is T3, Shp1 cSH2 domain.
T3 construct: The purified C-terminal SH2 domain (cSH2) was selected for these studies; made in house
In words: NMR 1H-15N HSQC titration of cSH2 domain. In kind it is binding, human. Particulars: fast exchange regime, cSH2:GroPIns4P up to 1:5. Here is the method:
A suite of triple resonance experiments (Additional file 1 Table S1) was used for assignment of the ^1H, ^15N and ^13C backbone resonances of the Shp1 cSH2 domain. All experiments were acquired on a 700 MHz Bruker Avance instrument equipped with a TCI cryoprobe. Assignment of the cSH2 domain backbone resonances was complete with the exception of the resonances of S109 and G175. ^15N cSH2 (200 μM) was titrated with GroPIns4P, and a series of ^1H–^15N-HSQC spectra were recorded at different cSH2:GroPIns4P ratios up to a 1:5 ratio. […] The ^1HN and ^15N chemical shift perturbations were estimated by using the following equation [23]: Δδ=ΔHN^2+ΔN/5^2/2^1/2
Where ΔHN and ΔN are the differences between the ^1H and ^15N chemical shifts of free cSH2 and cSH2 in the presence of GroPIns4P, respectively.

A further test relates to T4, Shp1 and Src.
T4 construct: expressed in transfected cells; host or cells: NIH3T3
Description: Acceptor photobleaching FRET of Shp1-CFP and Src-YFP. Particulars: 50 μM for 5 min. Type of test: cell-based. Here is the method:
Acceptor photobleaching (apFRET) experiments were carried out with Leica SP5 confocal microscope, as follows: for CFP (donor) fluorescence detection, excitation at 458 nm and fluorescence detected at 470–490 nm. For YFP bleaching, a 514 nm argon laser was used. apFRET was measured by increase in CFP fluorescence intensity before (IDA) and after (ID) YFP photobleaching. To ensure reproducibility and reliability of CFP fluorescence measurements in the absence of acceptor (ID), YFP was photobleached to 10% of its initial fluorescence. The FRET efficiency was calculated as E = (ID − IDA)/ ID .

As a reminder, the EC50 is the concentration needed to bring the measured effect to its halfway point.

For the compound `O=P(O)(O)OC1C(O)C(O)C(OP(=O)(O)OCC(O)CO)C(O)C1O` (stereo not shown) [GroPIns4P, glycerophosphoinositol 4-phosphate], the EC50 was ~600 nM on Shp1 [1] (Shp1 1.2 μM, GroPIns4P 0.0 to 5.0 μM, emission at 332 nm, read-out: apparent EC50 of Trp fluorescence quenching) and ~800 nM on Shp1 [3]. Moreover, at Shp1 [1] (at 5 μM GroPIns4P), the “maximal quenching of the initial emission” value was 18%. Moreover, the “decrease of binding efficiency of the mutated protein” value in test [2] is recorded as “up to 50%”. For the same compound, the “exchange rate between bound and free cSH2” value with Shp1 cSH2 domain is “higher than 2 × 10^3 s^-1”. In the test with Shp1 and Src (lamellar regions), the “FRET efficiency in hot spots” value was “over 20%”. Besides, the “average FRET efficiency” value with Shp1 and Src (over the cells) is given as 9%.
